Measured values: paper PMC6630718, “Discovery of Novel UV-Filters with Favorable Safety Profiles in the 5-Arylideneimidazolidine-2,4-dione Derivatives Group” (Molecules, 2019)
Like-named read-outs stand apart in the source and are kept apart here.

Experiments:
[1] = Photostability in methanol solutions (solar light simulator); assay type: physicochemical; design: λmax pre-irradiation: unit not given beside the values; conditions: methanol solution; for % of initial AUC post-irradiation / λmax post-irradiation: 1h irradiation at 500 W/m2
In short: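 Compounds at 25 or 50 µM in methanol, in stoppered quartz cuvettes, were irradiated 1 h at 500 W/m^2 (UV dose 218 kJ/m^2). A solar simulator filtered below 290 nm with an IR block was used. UV absorption spectra before and after irradiation were compared, with UPLC-MS/MS analysis, in duplicate.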

[2] = In vitro photoprotection study of 2% (w/w) macrogol formulations on PMMA plates; conditions: for UVA PF / UVA/UVB Ratio / λc (critical wavelength): 2% (w/w) macrogol formulation F1 (Triacetin 4.8%); for SPFin vitro: 2% (w/w) macrogol formulation F1 (Tween 20, PEG-400, PEG-1500, Triacetin 4.8%)
In short: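 Compounds at 2% in macrogol (PEG-400/PEG-1500) formulations, predissolved in triacetin:Tween 20 (1:9) or DMSO; 32.5 mg applied to 25 cm² PMMA plates (5 µm roughness), glycerin-treated plate as reference. Per EN ISO 24443:2012, modified: reflectance absorbance 290–400 nm in 1 nm steps, averaged over 12 scans.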

[3] = Ames MPF Penta 2 microplate mutagenicity assay, TA100; assay type: cell-based; conditions: Salmonella typhimurium, read-out: FIB (fold induction over baseline)
Description: The assay is a liquid microplate modification of the traditional Salmonella test. During the procedure, bacteria are exposed to different concentrations of a test compound for 90 min in a medium containing sufficient histidine (S. typhimurium) or tryptophan (E. coli) to support cell divisions. Then, the cultures are diluted in pH indicator medium lacking histidine or tryptophan and aliquoted into 48 wells of a 384-well plate. Within 48 hours, cells that have undergone reversion to amino acid prototrophy will grow into colonies. Bacterial metabolism reduces pH of the medium, changing the color of that well from purple to yellow (https://www.xenometrix.ch).
The following strains were used in the study: S. typhimurium TA98, TA100, TA1535, TA1537 and E. coli wp2 uvrA[pKM101]. TA100, TA1535 and E. coli strains are used for the detection of base substitution mutations, whereas TA98 and TA1537 are utilized for the detection of frameshift mutations. S. typhimurium strains have GC base pairs, whereas E. coli strain has AT base pair at their primary reversion site and detect certain oxidizing mutagens, cross-linking agents and hydrazines.
The test procedure provided by Xenometrix (https://www.xenometrix.ch) and described earlier was followed. Briefly, the bacterial strains were grown overnight in exposure medium and exposed to test compounds 4g and 3b in 24-well plates for 90 min at 37 °C with agitation in the absence (–S9) or presence (+S9) of 4.5% phenobarbital/ β-naphthoflavone-induced rat liver S9. Compounds 4g and 3b were dissolved in DMSO and tested at final concentrations of 0.1, 0.2 and 0.5 mM. After the preincubation, the cultures were diluted in the indicator medium and the contents of each 24-well culture were distributed into 48 wells on a 384-well plate and incubated further for 48 h at 37 °C without agitation. After the exposure, the number of wells containing bacteria was scored by eye for yellow wells. Positive and negative controls were included in the assay, and all doses were done in triplicate.
Pure DMSO was used as the negative control.
The fold increase of revertants relative to the solvent control was determined by dividing the mean number of positive wells at each dose by the solvent control at baseline. The solvent control at baseline was defined as the mean number of positive wells in the solvent control plus one standard deviation (SD). When an increase of more than 2-fold relative to the baseline at more than one dose with a dose–response is observed the sample is classified as positive, whereas when no response >2 times the baseline and no dose–response is stated the sample is negative.

[4] = Ames MPF Penta 2 mutagenicity assay, overall verdict over all strains; assay type: cell-based, Salmonella typhimurium, Escherichia coli; conditions: Salmonella typhimurium, Escherichia coli; 0.1, 0.2 and 0.5 mM, absence and presence of metabolic activation; read-out: fold induction over the baseline, any dose and strain
Text: (§1) Growth, exposure and indicator media, liver S9 fraction, S9-NADP, S9-G-6-P, positive control chemicals as well as Salmonella typhimurium and Escherichia coli strains were included in the kit from Xenometrix. According to the obtained results, there were no doses of test compounds 3b and 4g with more than a 2-fold induction over the baseline, and a dose dependent response was not observed both in the absence and presence of metabolic activation (Table S3). Therefore, compounds 3b and 4g were clearly non-mutagenic in the absence and presence of metabolic activation.

[5] = test system: Salmonella typhimurium and Escherichia coli strains; test: as above; assay type: cell-based; conditions: in the absence and presence of metabolic activation
Text: as §1

[6] = S. typhimurium TA100 without S9 (–S9), TA100, –S9, 0.1 mM
[7] = S. typhimurium TA100 without S9 (–S9), TA100, –S9, 0.2 mM
[8] = S. typhimurium TA100 without S9 (–S9), TA100, –S9, 0.5 mM

With `CCOC(=O)CN1C(=O)/C(=C/c2ccc(OC)cc2)N(CC(=O)OCC)C1=O` [Compound 3b, Diethyl 2,2′-((Z)-4-(4-methoxybenzylidene)-2,5-dioxoimidazolidine-1,3-diyl)diacetate] the λmax pre-irradiation [1] was 318, the “% of initial AUC post-irradiation” value [1] was 114.39% and the λmax post-irradiation [1] was 326. The “percentage of photoisomer formation” value ([1]; post-irradiation chromatogram) was 28.4%, the “UVA PF” value [2] was 2.59 ± 0.23 and the “UVA/UVB Ratio” value [2] was 0.84 ± 0.08. It also gave a λc (critical wavelength) [2] of 366 nm, an SPFin vitro [2] of 3.07 ± 0.04 and a fold induction at 90 min, 0.1 mM [3, 6] of 1.1. It also gave a fold induction at 90 min, 0.2 mM [3, 7] of 0.8, a fold induction at 90 min, 0.5 mM [3, 8] of 0.7 and a fold induction at 90 min, 0.1 mM ([3]; TA100, +S9, 0.1 mM) of 0.7. The fold induction at 90 min, 0.2 mM ([3]; TA100, +S9, 0.2 mM) was 0.6, the fold induction at 90 min, 0.5 mM ([3]; TA100, +S9, 0.5 mM) was 0.6 and the fold induction at 90 min [4] was ≤ 2. The “mutagenicity (verdict in words)” value [5] was “non-mutagenic”.
In the case of `CCOC(=O)CN1C(=O)/C(=C/C=C/c2ccc(OC)cc2)N(CC(=O)OCC)C1=O` [Compound 4g, Diethyl 2,2′-((Z)-4-((E)-3-(4-methoxyphenyl)allylidene)-2,5-dioxoimidazolidine-1,3-diyl)diacetate], the “decrease of AUC after irradiation” value [1] is reported as 19.9%, the λmax pre-irradiation [1] is reported as 379 and the “% of initial AUC post-irradiation” value [1] is reported as 80.15%. The λmax post-irradiation [1] was 378, the “UVA PF” value [2] was 6.83 ± 0.05 and the “UVA/UVB Ratio” value [2] was 4.50 ± 0.32. It also gave a λc (critical wavelength) [2] of 391 nm, an SPFin vitro [2] of 1.68 ± 0.04 and a fold induction at 90 min, 0.1 mM [3, 6] of 1.1. The fold induction at 90 min, 0.2 mM [3, 7] was 0.3, the fold induction at 90 min, 0.5 mM [3, 8] was 0.6 and the fold induction at 90 min, 0.1 mM ([3]; TA100, +S9, 0.1 mM) was 0.7. For the same compound, the fold induction at 90 min, 0.2 mM ([3]; TA100, +S9, 0.2 mM) was 0.5, the fold induction at 90 min, 0.5 mM ([3]; TA100, +S9, 0.5 mM) was 0.5 and the fold induction at 90 min [4] was ≤ 2. The “mutagenicity (verdict in words)” value [5] was “non-mutagenic”.
